Starred links: 1 amine or outer side, 2 acyl side, 3 side chain; linkers in the order of their positions; H or OH if unused. Non-standard residues stand in square brackets, D forms with d. Residues, ends and D or L forms follow the SMILES beside them. Cha = N[C@@H](CC1CCCCC1)C(=O)O; Suc = O=C(CCC(=O)[*:2])[*:1]
Target: Bovine thrombin (Bos taurus, UniProt P00735)
Experiment: thrombin induced fibrin clot inhibition assay
Type: biochemical
Experimental: Samples were tested in a thrombin induced fibrin clot inhibition assay. All the solutions of the assay were made with an assay buffer containing 0.12M sodium chloride, 0.01M sodium phosphate, 0.01% sodium azide and 0.1% bovine serum albumin, pH 7.4. […] This solution of thrombin (50 ul; 0.2 pmol) was added to the wells of a microtiter plate containing 50 ul of a solution of the synthetic peptide being tested. […] The turbidity of the solution was monitored by the autoreader at 5 min intervals. […] This is equivalent to a twofold increase in fibrin clot formation time. For the assays using human thrombin,, it and bovine thrombin were titrated to concentrations which gave the fibrin clot at the same rate over a 30 min period.

SMILES | IC50
CC[C@H](C)[C@H](NC(=O)[C@@H]1CCCN1C(=O)[C@H](CCC(=O)O)NC(=O)[C@H](Cc1ccc(O)cc1)NC(=O)CCC(=O)O)C(=O)N1CCC[C@H]1C(=O)N[C@@H](CCC(=O)O)C(=O)N[C@@H](CCC(=O)O)C(=O)N[C@@H](CC1CCCCC1)C(=O)N[C@@H](CCC(N)=O)C(N)=O [compound 5, Suc--Tyr--Glu--Pro--Ile-- Pro--Glu--Glu--Cha--Gln--NH2] (Suc-YEPIPEE[Cha]Q-NH2) | < 25 µM
CC[C@H](C)[C@H](NC(=O)[C@@H]1CCCN1C(=O)[C@H](CCC(=O)O)NC(=O)[C@H](Cc1ccc(O)cc1)NC(=O)CCC(=O)O)C(=O)N1CCC[C@H]1C(=O)N[C@@H](CCC(=O)O)C(=O)N[C@@H](CCC(=O)O)C(=O)N[C@@H](CC1CCCCC1)C(=O)N[C@H](CCC(=O)O)C(=O)O [compound 15, Suc--Tyr--Glu--Pro--Ile--Pro--Glu--Glu--Cha--D-Glu--OH] | < 25 µM
CC[C@H](C)[C@H](NC(=O)[C@@H]1CCCN1C(=O)[C@H](CCC(=O)O)NC(=O)[C@H](Cc1ccc(O)cc1)NC(=O)CCC(=O)O)C(=O)N1CCC[C@H]1C(=O)N[C@@H](CCC(=O)O)C(=O)N[C@@H](CCC(=O)O)C(=O)N[C@@H](C)C(=O)N[C@@H](CC1CCCCC1)C(=O)O [compound 18, Suc--Tyr--Glu--Pro--Ile--Pro--Glu--Glu--Ala--Cha--OH] | < 25 µM

— patent US5192747A, “Anticoagulant peptides” (Merrell Dow Pharmaceuticals Inc., priority 1991, dated 1993)
